Converted amounts (≈) assume the structure as drawn.

Assay type in all cases: functional
One experiment concerns Escherichia coli. Kind of experiment: Antibacterial activity against Escherichia coli ATCC 25922 by serial broth dilution assay. On the technique in general: In broth dilution the organism is exposed to a series of concentrations in liquid medium.
For another experiment, the system named is Micrococcus luteus. Kind of experiment: Antibacterial activity against Micrococcus luteus ATCC 4698 by paper disc-agar diffusion assay. In general terms: In agar diffusion tests the substance spreads into inoculated agar from a disc or well.
The subject of the next experiment is Hafnia alvei. Put plainly: Antibacterial activity against Hafnia alvei by serial broth dilution assay.
Another experiment concerns Enterococcus faecalis. Kind of experiment: Antibacterial activity against Streptococcus faecalis by serial broth dilution assay.
A further experiment relates to Aeromonas hydrophila. Put plainly: Antibacterial activity against Aeromonas hydrophila by serial broth dilution assay.
Another experiment concerns Bacillus subtilis. Put plainly: Antibacterial activity against Bacillus subtilis by serial broth dilution assay.
The next experiment concerns Staphylococcus aureus. Kind of experiment: Antibacterial activity against Staphylococcus aureus ATCC 25923 by serial broth dilution assay.
In a further experiment the test system is Proteus mirabilis. Put plainly: Antibacterial activity against Proteus mirabilis by serial broth dilution assay.

As usually defined, the MIC is the lowest concentration that inhibits growth of the organism. Read a high MIC as a less susceptible organism. Turning to `CC(=O)Oc1c(O)cc(O)cc1C/C=C(\C)CC/C=C(\C)CC/C=C(\C)CCC=C(C)C`, the MIC was 6.25 µg/mL (≈ 14.2 µM) in the experiment on Escherichia coli; 50 µg/mL (≈ 113 µM) against Micrococcus luteus; > 100 µg/mL against Hafnia alvei; > 100 µg/mL with Enterococcus faecalis; 12.5 µg/mL (≈ 28.4 µM) with Aeromonas hydrophila; > 100 µg/mL in the experiment on Bacillus subtilis. In addition, the MIC with Staphylococcus aureus and against Proteus mirabilis was > 100 µg/mL in each case.

For `CC(C)=CCC/C(C)=C/CC/C(C)=C/CCC1(C)C=Cc2c(ccc(O)c2O)O1` (stereo not given), the MIC in the experiment on Escherichia coli, in the experiment with Micrococcus luteus, in the experiment with Hafnia alvei, against Enterococcus faecalis, in the experiment with Aeromonas hydrophila and against Bacillus subtilis was > 100 µg/mL each time. Further, the MIC in the experiment on Staphylococcus aureus and against Proteus mirabilis was > 100 µg/mL each time.

For `CC(=O)Oc1c(O)ccc(O)c1C/C=C(\C)CC/C=C(\C)CC/C=C(\C)CCC=C(C)C`, the MIC with Escherichia coli was 50 µg/mL (≈ 113 µM); in the experiment on Micrococcus luteus, 50 µg/mL (≈ 113 µM); in the experiment on Hafnia alvei it was > 100 µg/mL; against Enterococcus faecalis it was 100 µg/mL (≈ 227 µM); in the experiment with Aeromonas hydrophila, > 100 µg/mL; with Bacillus subtilis, > 100 µg/mL. Also, the MIC against Staphylococcus aureus and against Proteus mirabilis was > 100 µg/mL in each case.

Consider `COc1ccc(O)c(O)c1C/C=C(\C)CC/C=C(\C)CC/C=C(\C)CCC=C(C)C`, for which the MIC in the experiment on Escherichia coli is > 100 µg/mL; against Micrococcus luteus, 100 µg/mL (≈ 242 µM); against Hafnia alvei, > 100 µg/mL; against Enterococcus faecalis, > 100 µg/mL; against Aeromonas hydrophila it was > 100 µg/mL; against Bacillus subtilis, > 100 µg/mL. Besides, the MIC with Staphylococcus aureus and in the experiment with Proteus mirabilis was > 100 µg/mL in each case.

On to `COc1c(O)cc(O)cc1C/C=C(\C)CC/C=C(\C)CC/C=C(\C)CCC=C(C)C`, for which the minimal inhibitory concentration (MIC) with Escherichia coli is 1.56 µg/mL (≈ 3.78 µM); in the experiment with Micrococcus luteus, 6.25 µg/mL (≈ 15.1 µM); against Hafnia alvei, > 100 µg/mL; with Enterococcus faecalis it was > 100 µg/mL; with Aeromonas hydrophila it was 0.78 µg/mL (≈ 1.89 µM); with Bacillus subtilis, > 100 µg/mL. In addition, the MIC against Staphylococcus aureus and in the experiment with Proteus mirabilis was > 100 µg/mL throughout.

The values are drawn from ChEMBL document CHEMBL1147303, “Antimicrobial tetraprenylphenols from Suillus granulatus” (1989).
